Assay results as given in US5212176A, “R(+)-terazosin” (Abbott Laboratories, priority 1990, dated 1993).
Counter-ions that a name gives are not always drawn.

How the values were obtained:
[1] = tested on: spontaneously hypertensive rat; experiment: antihypertensive effects in the spontaneously hypertensive rat model (blood pressure and heart rate); format: in vivo; conditions: oral, 0.1 to 10.0 mg/kg; 1, 5, 8, and 24 hours
Method: The antihypertensive effects of R(+)-, S(-)-, and racemic terazosin were tested in several well-controlled experiments in the spontaneously hypertensive rat model. All three materials were dissolved in vehicle (0.2% methylcellulose) and administered orally at doses ranging from 0.1 to 10.0 mg/kg of body weight. As a control, the vehicle was administered orally. The compounds were administered in a volume of 2.0 ml/kg. All doses of the compound and vehicle were tested simultaneously in groups of eight to sixteen rats, randomly grouped.
The arterial and systolic blood pressure and heart rate were measured thirty minutes prior to and at intervals of 1, 5, 8, and 24 hours following administration of the test compounds. […] While not holding to one theory to the exclusion of others, it is believed that the tachycardia associated with administration of the S(-)-enantiomer is due to the greater affinity of the S(-)-enantiomer for binding at the α2 adrenergic receptor and the lack of tachycardia associated with administration of the R(+)-enantiomer with its low affinity for the α2 receptors.

[2] = acute toxicity, intravenous administration in adult male mice; format: in vivo; conditions: mouse, in vivo, adult male mice
Method: (§1) The acute toxicities of the two enantiomeric forms of terazosin and the racemic compound were tested in adult male mice by intravenous administration, and the data appear in Table 2.

α1 adrenergic receptors = target: T1, α1 adrenergic receptors (Rattus norvegicus, UniProt P15823); experiment: α1 adrenergic receptor binding: competition with tritiated prazosin in rat liver membranes; set-up: species or system male Sprague-Dawley rats; conditions: [3H]prazosin 0.2 nM, 22° C., 50 min, mean, read-out: α1 Receptor pKI (converted)
T1 construct: cellular membranes containing α-receptors; from tissue; host or cells: liver membranes of male Sprague-Dawley rats
T1 sequence (P15823 1-515): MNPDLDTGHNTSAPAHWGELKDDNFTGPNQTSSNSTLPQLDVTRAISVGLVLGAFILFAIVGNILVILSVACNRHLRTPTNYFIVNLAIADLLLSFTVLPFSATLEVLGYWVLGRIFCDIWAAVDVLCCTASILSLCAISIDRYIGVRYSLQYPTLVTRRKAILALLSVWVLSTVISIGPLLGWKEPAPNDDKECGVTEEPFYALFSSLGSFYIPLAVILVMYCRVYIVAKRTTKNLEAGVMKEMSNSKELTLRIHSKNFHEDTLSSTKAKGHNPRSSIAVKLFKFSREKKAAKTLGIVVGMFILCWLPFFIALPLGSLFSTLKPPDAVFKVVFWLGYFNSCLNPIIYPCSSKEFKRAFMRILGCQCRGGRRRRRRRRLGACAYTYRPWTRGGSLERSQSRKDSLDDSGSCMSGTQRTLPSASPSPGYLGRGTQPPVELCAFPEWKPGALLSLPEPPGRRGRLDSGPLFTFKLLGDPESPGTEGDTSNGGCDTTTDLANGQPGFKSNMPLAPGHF
Method: (§2) The technique is well known and described in the literature. The pKI, or negative logarithm of the binding equilibrium constant, is determined from the experimental data for each receptor and the degree of selectivity of the compound in question for α1 over α2 receptors can be measured by the antilogarithm of the differences between the pKI values for the two receptors.
(§3) α-Adrenergic binding data were obtained for the two enantiomers of terazosin and the racemic compound. Tissue from the liver and cerebral cortex of male Sprague-Dawley rats was homogenized in ice-cold assay buffer (Tris-HCl, 50 mM, pH 7.0 and 22° C.). After centrifugation at 48,000 g for ten minutes the resulting pellets, containing cellular membranes containing α-receptors, were resuspended in 20 volumes of assay buffer and recentrifuged for ten minutes at 48,000 g. Liver membranes were diluted 200-fold and cerebral cortex tissues 50-fold with assay buffer.
(§4) Binding to α1 adrenergic receptors was characterized with liver membranes in competition studies using tritiated prazosin (82 Ci/mmol, DuPont NEN; 0.2 nM) and six concentrations of each test compound at half-log incremental concentrations. Binding to α2 adrenergic receptors was characterized in cerebral cortex tissue using tritiated rauwolscine (82.2 Ci/mMol, DuPont NEN; 0.5 nM) and six concentrations of competing test compound. Equilibrium binding was characterized after a 50 minute incubation period at 22° C.
(§5) where [L] is the concentration of radioligand and KD is the equilibrium dissociation constant of the radioligand for the receptor.

α2 adrenergic receptors = experiment: α2 adrenergic receptor binding: competition with tritiated rauwolscine in rat cerebral cortex tissue; set-up: species or system male Sprague-Dawley rats; conditions: [3H]rauwolscine 0.5 nM, 22° C., 50 min, mean
Method: as §2, §3, §4, §5

adult male mice = experiment: acute toxicity, intravenous administration in adult male mice; format: in vivo; conditions: mice, R(+) vs S(-)
Method: as §1

α2 adrenoceptor = target: T2, α2 adrenoceptor (Rattus norvegicus, UniProt P22909); experiment: α2-mediated norepinephrine release / clonidine antagonism in the stimulated rat vas deferens model; set-up: species or system male Wistar rats
T2 construct: Vas deferens tissue from male Wistar rats; from tissue; host or cells: isolated vas deferens of male Wistar rats
T2 sequence (P22909 1-465): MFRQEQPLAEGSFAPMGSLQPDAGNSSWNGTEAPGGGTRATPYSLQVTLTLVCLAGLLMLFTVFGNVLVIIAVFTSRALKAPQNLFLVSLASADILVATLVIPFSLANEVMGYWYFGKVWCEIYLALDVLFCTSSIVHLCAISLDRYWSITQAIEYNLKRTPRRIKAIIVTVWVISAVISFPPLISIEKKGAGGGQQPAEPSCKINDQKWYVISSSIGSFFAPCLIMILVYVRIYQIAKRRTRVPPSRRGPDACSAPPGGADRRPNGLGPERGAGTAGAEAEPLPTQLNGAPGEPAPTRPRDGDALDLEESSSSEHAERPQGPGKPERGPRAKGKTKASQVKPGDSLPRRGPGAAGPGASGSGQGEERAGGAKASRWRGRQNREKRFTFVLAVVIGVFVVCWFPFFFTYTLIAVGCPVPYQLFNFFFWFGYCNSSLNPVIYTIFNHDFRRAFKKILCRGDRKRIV
Method: The effect upon α2 -stimulated norepinephrine release of R(+)-terazosin and the S(-)-enantiomer and racemic compound were evaluated in the stimulated rat vas deferens model. Vas deferens tissue from male Wistar rats was cleaned of extraneous tissue and mounted between platinum stimulating electrodes and suspended in a tissue bath. The tissues were stimulated transmurally until the preparation stabilized, generally after about 60-80 minutes. After the twitch response became constant, a stimulus was applied at a frequency of 0.1 Hz for the duration of the dose-responsestudy.
Clonidine was used as a control for inhibiting the twitch response, with 10 minute contact times at increasing doses until the stimulated response was attenuated to zero. The stimulus was then reduced to once every five minutes and the tissue washed until the twitch response was restored. After this, the 0.1 Hz signal was again applied and clonidine was administered together with test compound. All responses were calculated as percent reduction in the twitch response.
(The pA2 values is the negative logarithm of the equilibrium dissociation constant for the antagonist-receptor complex, calculated from pharmacological functional data, and is a measure of the affinity of the antagonist at the particular receptor.)

| Compound | increase in heart rate (tachycardia) [1] | LD50 [2] [mg/kg] | Ki (α1 adrenergic receptors) [nM] | α2 Receptor pKI (α2 adrenergic receptors) | LD50 increase over the corresponding S(-)-enantiomer (adult male mice) [%] | pA2 (measurability) (α2 adrenoceptor; rat vas deferens) | α2-adrenoreceptor affinity and effect on α2-adrenoreceptor mediated norepinephrine release (α2 adrenoceptor; tested up to 3.0 μmolar) | effect on norepinephrine release and contractile (twitch) response (α2 adrenoceptor; rat vas deferens, 0.1 Hz stimulation, agonist control) |
| --- | --- | --- | --- | --- | --- | --- | --- | --- |
| COc1cc2nc(N3CCN(C(=O)C4CCCO4)CC3)nc(N)c2cc1OC (racemic) [Racemic, 2-[4-[(tetrahydro-2-furanyl)carbonyl]-1-piperazinyl]-6,7-dimethoxy-4-quinazolinamine, reference compound] | tachycardia was consistently observed | 248 | 0.643 | 6.569 ± 0.129 - log M |  |  |  |  |
| COc1cc2nc(N3CCN(C(=O)[C@H]4CCCO4)CC3)nc(N)c2cc1OC [R(+), R(+)-2-[4-[(tetrahydro-2-furanyl)carbonyl]-1-piperazinyl]-6,7-dimethoxy-4-quinazolinamine hydrochloride] | consistently did not produce an increase in heart rate (tachycardia) | 307 | 0.964 | 5.938 ± 0.178 - log M | 50 | No pA2 values could be measured | devoid of α2 -adrenoreceptor affinity and thus failed to affect α2 -adrenoreceptor mediated norepinephrine release |  |
| COc1cc2nc(N3CCN(C(=O)[C@@H]4CCCO4)CC3)nc(N)c2cc1OC [S(-), S(-)-2-[4-[(tetrahydro-2-furanyl)carbonyl]-1-piperazinyl]-6,7-dimethoxy-4-quinazolinamine] | tachycardia was consistently observed | 205 | 0.643 | 7.036 ± 0.199 - log M |  |  |  |  |
| Clc1cccc(Cl)c1N=C1NCCN1 [clonidine, reference compound] |  |  |  |  |  |  |  | inhibits norepinephrine release from the adrenergic nerve endings and thus inhibits the contractile response of tissue |
